Laboratory results from patent US12102089B2, “Method for inactivating mold spores” (DSM IP ASSETS B.V., priority 2017, dated 2024).

System: Paecilomyces variotti (ATCC 22319)
Assay: Heat treatment of Paecilomyces variotti spores in ice tea with natamycin, visual growth
Type: cell-based
Parameters: key to growth (+) or no growth (−): growth (+); no growth (−)
Description: Commercially available ice tea (Lipton, peach flavor, non-carbonated, 1.5 L) was adjusted to high water hardness by adding 1 ml of a solution of 39 g CaCl2 and 27 g MgCl2 added to 934 g water. ⅓ of this ice tea preparation (the pH of which was 3.15) was left as-such, ⅓ of the preparation was enriched with 5 ppm natamycin and ⅓ of the preparation was enriched with 10 ppm natamycin. Samples of 5 ml were made from each preparation in 15 ml sterile plastic tubes. Of each preparation 8 samples were pre-heated to the desired pasteurization temperature using a water bath. Temperatures used were RT, 60, 65, 70, 75, 80, 85 and 90° C. When the desired temperature was reached, 100 μl of a 2500 spores/ml spore suspension of Aspergillus niger ATCC 9029AA was added to each tube. Subsequently, the samples were kept for 30 seconds at the temperature in question in the water bath. Next, the samples were cooled on ice to a temperature of 25° C. Samples were incubated at 25° C. and visually examined for growth (formation of mold flakes or turbidity) for two months. Additionally, samples were enumerated according to ISO protocol 21527-1.2008 on day 0 (before heat treatment) and day 1 (after heat treatment) to count immediate loss of viability. […] For the results, see Table 1. […] Example 1 was repeated however with Paecilomyces variotti (ATCC 22319, 1000 spores/ml) instead of Aspergillus niger.

For C[C@@H]1C/C=C/C=C/C=C/C=C/[C@H](O[C@@H]2O[C@H](C)[C@@H](O)[C@H](N)[C@@H]2O)C[C@@H]2O[C@](O)(C[C@@H](O)C[C@H]3O[C@@H]3/C=C/C(=O)O1)C[C@H](O)[C@H]2C(=O)O [natamycin], the germination (90° C., in the presence of natamycin) was “no germination occurred”, the germination (RT and 60° C., 5 or 10 ppm natamycin) was “delayed germination” and the “growth (+) or no growth (−)” value (T 60, natamycin 5 ppm, day 1) was “−”. For the same compound, the “growth (+) or no growth (−)” value (T 60, natamycin 5 ppm, day 2) was “−”, the “growth (+) or no growth (−)” value (T 60, natamycin 5 ppm, day 3) was “−” and the “growth (+) or no growth (−)” value (T 60, natamycin 5 ppm, day 4) was “−”. The “growth (+) or no growth (−)” value (T 60, natamycin 5 ppm, day 5) was “−”, the “growth (+) or no growth (−)” value (T 60, natamycin 5 ppm, day 6) was “−” and the “growth (+) or no growth (−)” value (T 60, natamycin 5 ppm, day 7) was “−”. For the same compound, the “growth (+) or no growth (−)” value (T 60, natamycin 5 ppm, day 8) was “−”, the “growth (+) or no growth (−)” value (T 60, natamycin 5 ppm, day 9) was “−” and the “growth (+) or no growth (−)” value (T 60, natamycin 5 ppm, day 10) was “+”. For the same compound, the “growth (+) or no growth (−)” value (T 60, natamycin 5 ppm, day 11) was “+”, the “growth (+) or no growth (−)” value (T 60, natamycin 5 ppm, day 12) was “+” and the “growth (+) or no growth (−)” value (T 60, natamycin 5 ppm, day 13) was “+”. The “growth (+) or no growth (−)” value (T 60, natamycin 5 ppm, day 14) was “+”, the “growth (+) or no growth (−)” value (T 60, natamycin 5 ppm, day 15) was “+” and the “growth (+) or no growth (−)” value (T 60, natamycin 5 ppm, day 16) was “+”. For the same compound, the “growth (+) or no growth (−)” value (T 60, natamycin 5 ppm, day 17) was “+”, the “growth (+) or no growth (−)” value (T 60, natamycin 5 ppm, day 50) was “+” and the “growth (+) or no growth (−)” value (T 60, natamycin 10 ppm, day 1) was “−”. For the same compound, the “growth (+) or no growth (−)” value (T 60, natamycin 10 ppm, day 2) was “−”, the “growth (+) or no growth (−)” value (T 60, natamycin 10 ppm, day 3) was “−” and the “growth (+) or no growth (−)” value (T 60, natamycin 10 ppm, day 4) was “−”. The “growth (+) or no growth (−)” value (T 60, natamycin 10 ppm, day 5) was “−”, the “growth (+) or no growth (−)” value (T 60, natamycin 10 ppm, day 6) was “−” and the “growth (+) or no growth (−)” value (T 60, natamycin 10 ppm, day 7) was “−”. The “growth (+) or no growth (−)” value (T 60, natamycin 10 ppm, day 8) was “−”, the “growth (+) or no growth (−)” value (T 60, natamycin 10 ppm, day 9) was “−” and the “growth (+) or no growth (−)” value (T 60, natamycin 10 ppm, day 10) was “−”. The “growth (+) or no growth (−)” value (T 60, natamycin 10 ppm, day 11) was “−”, the “growth (+) or no growth (−)” value (T 60, natamycin 10 ppm, day 12) was “−” and the “growth (+) or no growth (−)” value (T 60, natamycin 10 ppm, day 13) was “−”. The “growth (+) or no growth (−)” value (T 60, natamycin 10 ppm, day 14) was “+”, the “growth (+) or no growth (−)” value (T 60, natamycin 10 ppm, day 15) was “+” and the “growth (+) or no growth (−)” value (T 60, natamycin 10 ppm, day 16) was “+”. For the same compound, the “growth (+) or no growth (−)” value (T 60, natamycin 10 ppm, day 17) was “+”, the “growth (+) or no growth (−)” value (T 60, natamycin 10 ppm, day 50) was “+” and the “growth (+) or no growth (−)” value (T 65, natamycin 5 ppm, day 1) was “−”. For the same compound, the “growth (+) or no growth (−)” value (T 65, natamycin 5 ppm, day 2) was “−”, the “growth (+) or no growth (−)” value (T 65, natamycin 5 ppm, day 3) was “−” and the “growth (+) or no growth (−)” value (T 65, natamycin 5 ppm, day 4) was “−”. The “growth (+) or no growth (−)” value (T 65, natamycin 5 ppm, day 5) was “−”, the “growth (+) or no growth (−)” value (T 65, natamycin 5 ppm, day 6) was “−” and the “growth (+) or no growth (−)” value (T 65, natamycin 5 ppm, day 7) was “−”. For the same compound, the “growth (+) or no growth (−)” value (T 65, natamycin 5 ppm, day 8) was “−”, the “growth (+) or no growth (−)” value (T 65, natamycin 5 ppm, day 9) was “−” and the “growth (+) or no growth (−)” value (T 65, natamycin 5 ppm, day 10) was “−”. The “growth (+) or no growth (−)” value (T 65, natamycin 5 ppm, day 11) was “−”, the “growth (+) or no growth (−)” value (T 65, natamycin 5 ppm, day 12) was “−” and the “growth (+) or no growth (−)” value (T 65, natamycin 5 ppm, day 13) was “−”. The “growth (+) or no growth (−)” value (T 65, natamycin 5 ppm, day 14) was “−”, the “growth (+) or no growth (−)” value (T 65, natamycin 5 ppm, day 15) was “−” and the “growth (+) or no growth (−)” value (T 65, natamycin 5 ppm, day 16) was “−”. For the same compound, the “growth (+) or no growth (−)” value (T 65, natamycin 5 ppm, day 17) was “−”, the “growth (+) or no growth (−)” value (T 65, natamycin 5 ppm, day 50) was “−” and the “growth (+) or no growth (−)” value (T 65, natamycin 10 ppm, day 1) was “−”. For the same compound, the “growth (+) or no growth (−)” value (T 65, natamycin 10 ppm, day 2) was “−”, the “growth (+) or no growth (−)” value (T 65, natamycin 10 ppm, day 3) was “−” and the “growth (+) or no growth (−)” value (T 65, natamycin 10 ppm, day 4) was “−”. The “growth (+) or no growth (−)” value (T 65, natamycin 10 ppm, day 5) was “−”, the “growth (+) or no growth (−)” value (T 65, natamycin 10 ppm, day 6) was “−” and the “growth (+) or no growth (−)” value (T 65, natamycin 10 ppm, day 7) was “−”. For the same compound, the “growth (+) or no growth (−)” value (T 65, natamycin 10 ppm, day 8) was “−”, the “growth (+) or no growth (−)” value (T 65, natamycin 10 ppm, day 9) was “−” and the “growth (+) or no growth (−)” value (T 65, natamycin 10 ppm, day 10) was “−”. For the same compound, the “growth (+) or no growth (−)” value (T 65, natamycin 10 ppm, day 11) was “−”, the “growth (+) or no growth (−)” value (T 65, natamycin 10 ppm, day 12) was “−” and the “growth (+) or no growth (−)” value (T 65, natamycin 10 ppm, day 13) was “−”. For the same compound, the “growth (+) or no growth (−)” value (T 65, natamycin 10 ppm, day 14) was “−”, the “growth (+) or no growth (−)” value (T 65, natamycin 10 ppm, day 15) was “−” and the “growth (+) or no growth (−)” value (T 65, natamycin 10 ppm, day 16) was “−”. For the same compound, the “growth (+) or no growth (−)” value (T 65, natamycin 10 ppm, day 17) was “−”, the “growth (+) or no growth (−)” value (T 65, natamycin 10 ppm, day 50) was “−” and the “growth (+) or no growth (−)” value (T 70, natamycin 5 ppm, day 1) was “−”. For the same compound, the “growth (+) or no growth (−)” value (T 70, natamycin 5 ppm, day 2) was “−”, the “growth (+) or no growth (−)” value (T 70, natamycin 5 ppm, day 3) was “−” and the “growth (+) or no growth (−)” value (T 70, natamycin 5 ppm, day 4) was “−”. The “growth (+) or no growth (−)” value (T 70, natamycin 5 ppm, day 5) was “−”, the “growth (+) or no growth (−)” value (T 70, natamycin 5 ppm, day 6) was “−” and the “growth (+) or no growth (−)” value (T 70, natamycin 5 ppm, day 7) was “−”. The “growth (+) or no growth (−)” value (T 70, natamycin 5 ppm, day 8) was “−”, the “growth (+) or no growth (−)” value (T 70, natamycin 5 ppm, day 9) was “−” and the “growth (+) or no growth (−)” value (T 70, natamycin 5 ppm, day 10) was “−”. The “growth (+) or no growth (−)” value (T 70, natamycin 5 ppm, day 11) was “−”, the “growth (+) or no growth (−)” value (T 70, natamycin 5 ppm, day 12) was “−” and the “growth (+) or no growth (−)” value (T 70, natamycin 5 ppm, day 13) was “−”. The “growth (+) or no growth (−)” value (T 70, natamycin 5 ppm, day 14) was “−”, the “growth (+) or no growth (−)” value (T 70, natamycin 5 ppm, day 15) was “−” and the “growth (+) or no growth (−)” value (T 70, natamycin 5 ppm, day 16) was “−”. The “growth (+) or no growth (−)” value (T 70, natamycin 5 ppm, day 17) was “−”, the “growth (+) or no growth (−)” value (T 70, natamycin 5 ppm, day 50) was “−” and the “growth (+) or no growth (−)” value (T 70, natamycin 10 ppm, day 9) was “−”. The “growth (+) or no growth (−)” value (T 70, natamycin 10 ppm, day 10) was “−”, the “growth (+) or no growth (−)” value (T 70, natamycin 10 ppm, day 11) was “−” and the “growth (+) or no growth (−)” value (T 70, natamycin 10 ppm, day 12) was “−”. For the same compound, the “growth (+) or no growth (−)” value (T 70, natamycin 10 ppm, day 13) was “−”, the “growth (+) or no growth (−)” value (T 70, natamycin 10 ppm, day 14) was “−” and the “growth (+) or no growth (−)” value (T 70, natamycin 10 ppm, day 15) was “−”. The “growth (+) or no growth (−)” value (T 70, natamycin 10 ppm, day 16) was “−”, the “growth (+) or no growth (−)” value (T 70, natamycin 10 ppm, day 17) was “−” and the “growth (+) or no growth (−)” value (T 70, natamycin 10 ppm, day 50) was “−”.
